In the supplement of paper PMC10307832:

Key:
Experiment in all cases: relative viability (nuclei count vs DMSO), 5 days (fraction); higher = more cells survive
CAL-12T = tested on: CAL-12T
Method in brief: (§1)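 Lung cancer cell lines, seeded in 1536-well plates, were treated the following day by pin tool with a single drug or with five library-drug doses (not always all listed) in √10 steps on top of a fixed anchor-drug dose. Cells were fixed and nuclei stained in one step after 5 days, and nuclei were counted. Relative viability is the nuclei count for treated wells divided by that for vehicle wells, reported as medians of duplicate plates.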

PC-3 [JPC-3] = tested on: PC-3 [JPC-3]
Method in brief: as §1

RERF-LC-KJ = tested on: RERF-LC-KJ
Method in brief: as §1

NCI-H1651 = tested on: NCI-H1651
Method in brief: as §1

NCI-H1755 = tested on: NCI-H1755
Method in brief: as §1

ChaGo-K-1 = tested on: ChaGo-K-1
Method in brief: as §1

LOU-NH91 = tested on: LOU-NH91
Method in brief: as §1

ABC-1 = tested on: ABC-1
Method in brief: as §1

LU99A = tested on: LU99A
Method in brief: as §1

LC-2-ad = tested on: LC-2-ad
Method in brief: as §1

NCI-H2228 = tested on: NCI-H2228
Method in brief: as §1

NCI-H3122 = tested on: NCI-H3122
Method in brief: as §1

HCC-366 = tested on: HCC-366
Method in brief: as §1

UMC-11 = tested on: UMC-11
Method in brief: as §1

NCI-H460 = tested on: NCI-H460
Method in brief: as §1

NCI-H2405 = tested on: NCI-H2405
Method in brief: as §1

HCC-78 = tested on: HCC-78
Method in brief: as §1

NCI-H2087 = tested on: NCI-H2087
Method in brief: as §1

SMILES: CCN(CC)CCCCNc1ncc2cc(-c3cc(OC)cc(OC)c3)c(NC(=O)NC(C)(C)C)nc2n1 + CC(C)C[C@H](NC(=O)[C@H](Cc1ccccc1)NC(=O)c1cnccn1)B(O)O [Bortezomib] (partner 0.002 µM)
- relative viability (CAL-12T; first compound 0.03162 µM): 1.02
- relative viability (CAL-12T; first compound 0.1 µM): 1.03
- relative viability (CAL-12T; first compound 0.3162 µM): 1.26
- relative viability (CAL-12T; first compound 1 µM): 0.769
- relative viability (PC-3 [JPC-3]; first compound 0.01 µM): 0.895
- relative viability (PC-3 [JPC-3]; first compound 0.03162 µM): 0.862
- relative viability (PC-3 [JPC-3]; first compound 0.1 µM): 0.972
- relative viability (PC-3 [JPC-3]; first compound 0.3162 µM): 0.966
- relative viability (PC-3 [JPC-3]; first compound 1 µM): 0.939
- relative viability (RERF-LC-KJ; first compound 0.01 µM): 1.17
- relative viability (RERF-LC-KJ; first compound 0.03162 µM): 1.15
- relative viability (RERF-LC-KJ; first compound 0.1 µM): 1.05
- relative viability (RERF-LC-KJ; first compound 0.3162 µM): 1.21
- relative viability (RERF-LC-KJ; first compound 1 µM): 1
- relative viability (NCI-H1651; first compound 0.01 µM): 1
- relative viability (NCI-H1651; first compound 0.03162 µM): 0.94
- relative viability (NCI-H1651; first compound 0.1 µM): 1.06
- relative viability (NCI-H1651; first compound 0.3162 µM): 1.03
- relative viability (NCI-H1651; first compound 1 µM): 0.902
- relative viability (NCI-H1755; first compound 0.01 µM): 0.977
- relative viability (NCI-H1755; first compound 0.03162 µM): 0.992
- relative viability (NCI-H1755; first compound 0.1 µM): 1.01
- relative viability (NCI-H1755; first compound 0.3162 µM): 1.07
- relative viability (NCI-H1755; first compound 1 µM): 0.936
- relative viability (ChaGo-K-1; first compound 0.01 µM): 1.08
- relative viability (ChaGo-K-1; first compound 0.03162 µM): 1.14
- relative viability (ChaGo-K-1; first compound 0.1 µM): 1.28
- relative viability (ChaGo-K-1; first compound 0.3162 µM): 1.27
- relative viability (ChaGo-K-1; first compound 1 µM): 0.742
- relative viability (LOU-NH91; first compound 0.01 µM): 0.531
- relative viability (LOU-NH91; first compound 0.03162 µM): 0.49
- relative viability (LOU-NH91; first compound 0.1 µM): 0.498
- relative viability (LOU-NH91; first compound 0.3162 µM): 0.515
- relative viability (LOU-NH91; first compound 1 µM): 0.424
- relative viability (ABC-1; first compound 0.01 µM): 0.325
- relative viability (ABC-1; first compound 0.03162 µM): 0.343
- relative viability (ABC-1; first compound 0.1 µM): 0.342
- relative viability (ABC-1; first compound 0.3162 µM): 0.247
- relative viability (ABC-1; first compound 1 µM): 0.327
- relative viability (LU99A; first compound 0.01 µM): 1.03
- relative viability (LU99A; first compound 0.03162 µM): 1.16
- relative viability (LU99A; first compound 0.1 µM): 1.34
- relative viability (LU99A; first compound 0.3162 µM): 1.23
- relative viability (LU99A; first compound 1 µM): 1.13
- relative viability (LC-2-ad; first compound 0.01 µM): 0.998
- relative viability (LC-2-ad; first compound 0.03162 µM): 1.06
- relative viability (LC-2-ad; first compound 0.1 µM): 1.33
- relative viability (LC-2-ad; first compound 0.3162 µM): 1.05
- relative viability (LC-2-ad; first compound 1 µM): 1
- relative viability (NCI-H2228; first compound 0.01 µM): 0.874
- relative viability (NCI-H2228; first compound 0.03162 µM): 0.997
- relative viability (NCI-H2228; first compound 0.1 µM): 1.24
- relative viability (NCI-H2228; first compound 0.3162 µM): 1.11
- relative viability (NCI-H2228; first compound 1 µM): 1.02
- relative viability (NCI-H3122; first compound 0.01 µM): 1.02
- relative viability (NCI-H3122; first compound 0.03162 µM): 1.07
- relative viability (NCI-H3122; first compound 0.1 µM): 1.1
- relative viability (NCI-H3122; first compound 0.3162 µM): 1.06
- relative viability (NCI-H3122; first compound 1 µM): 1.01
- relative viability (HCC-366; first compound 0.01 µM): 1.09
- relative viability (HCC-366; first compound 0.03162 µM): 1.06
- relative viability (HCC-366; first compound 0.1 µM): 1.48
- relative viability (HCC-366; first compound 0.3162 µM): 1.29
- relative viability (HCC-366; first compound 1 µM): 0.968
- relative viability (UMC-11; first compound 0.01 µM): 0.702
- relative viability (UMC-11; first compound 0.03162 µM): 0.722
- relative viability (UMC-11; first compound 0.1 µM): 0.73
- relative viability (UMC-11; first compound 0.3162 µM): 0.945
- relative viability (UMC-11; first compound 1 µM): 0.544
- relative viability (NCI-H460; first compound 0.01 µM): 1.3
- relative viability (NCI-H460; first compound 0.03162 µM): 1.33
- relative viability (NCI-H460; first compound 0.3162 µM): 1.62
- relative viability (NCI-H460; first compound 1 µM): 1.04
- relative viability (NCI-H2405; first compound 0.01 µM): 0.973
- relative viability (NCI-H2405; first compound 0.03162 µM): 0.866
- relative viability (NCI-H2405; first compound 0.1 µM): 1.05
- relative viability (NCI-H2405; first compound 0.3162 µM): 1.04
- relative viability (NCI-H2405; first compound 1 µM): 0.982
- relative viability (HCC-78; first compound 0.01 µM): 0.66
- relative viability (HCC-78; first compound 0.03162 µM): 0.487
- relative viability (HCC-78; first compound 0.1 µM): 0.395
- relative viability (HCC-78; first compound 0.3162 µM): 0.492
- relative viability (HCC-78; first compound 1 µM): 0.464
- relative viability (NCI-H2087; first compound 0.01 µM): 0.85
- relative viability (NCI-H2087; first compound 0.03162 µM): 0.909
- relative viability (NCI-H2087; first compound 0.1 µM): 1.08
- relative viability (NCI-H2087; first compound 0.3162 µM): 1.04
- relative viability (NCI-H2087; first compound 1 µM): 0.689
